Results: ChEMBL document CHEMBL5050844 (2019)
pIC50: −log10 of the molar value.

Columns and labels:
[1] = Induction of anti-CD3/CD28 antibodies-stimulated human T cell activation at 0.3 uM assessed fold increase in IL-2 secretion measured by ELISA assay; format: functional, T cell line
[2] = Induction of anti-CD3/CD28 antibodies-stimulated human T cell activation at 0.3 uM assessed fold increase in CD25 expression measured by ELISA assay; format: functional, T cell line
[3] = Induction of anti-CD3/CD28 antibodies-stimulated human T cell activation at 1 uM assessed fold increase in CD25 expression measured by ELISA assay; format: functional, T cell line
[4] = Induction of anti-CD3 antibodies-stimulated human T cell activation at 1 uM assessed fold increase in IL-2 secretion measured by ELISA assay; format: functional, T cell line; note: reference of the scale not given here
[5] = molecular target: E3 ubiquitin-protein ligase CBL-B (Homo sapiens, UniProt Q13191); assay: Inhibition of N-terminal Avi-tagged human CBL-B (36 to 427 residues) incubated with 60 nM Src kinase for 1.5 hrs followed by incubation with fluorescently labeled UbcH5B-Ub for 1 hr and measured by TR-FRET assay; format: single protein
E3 ubiquitin-protein ligase CBL-B, sequence (Q13191 whole entry, the tested form may be a part): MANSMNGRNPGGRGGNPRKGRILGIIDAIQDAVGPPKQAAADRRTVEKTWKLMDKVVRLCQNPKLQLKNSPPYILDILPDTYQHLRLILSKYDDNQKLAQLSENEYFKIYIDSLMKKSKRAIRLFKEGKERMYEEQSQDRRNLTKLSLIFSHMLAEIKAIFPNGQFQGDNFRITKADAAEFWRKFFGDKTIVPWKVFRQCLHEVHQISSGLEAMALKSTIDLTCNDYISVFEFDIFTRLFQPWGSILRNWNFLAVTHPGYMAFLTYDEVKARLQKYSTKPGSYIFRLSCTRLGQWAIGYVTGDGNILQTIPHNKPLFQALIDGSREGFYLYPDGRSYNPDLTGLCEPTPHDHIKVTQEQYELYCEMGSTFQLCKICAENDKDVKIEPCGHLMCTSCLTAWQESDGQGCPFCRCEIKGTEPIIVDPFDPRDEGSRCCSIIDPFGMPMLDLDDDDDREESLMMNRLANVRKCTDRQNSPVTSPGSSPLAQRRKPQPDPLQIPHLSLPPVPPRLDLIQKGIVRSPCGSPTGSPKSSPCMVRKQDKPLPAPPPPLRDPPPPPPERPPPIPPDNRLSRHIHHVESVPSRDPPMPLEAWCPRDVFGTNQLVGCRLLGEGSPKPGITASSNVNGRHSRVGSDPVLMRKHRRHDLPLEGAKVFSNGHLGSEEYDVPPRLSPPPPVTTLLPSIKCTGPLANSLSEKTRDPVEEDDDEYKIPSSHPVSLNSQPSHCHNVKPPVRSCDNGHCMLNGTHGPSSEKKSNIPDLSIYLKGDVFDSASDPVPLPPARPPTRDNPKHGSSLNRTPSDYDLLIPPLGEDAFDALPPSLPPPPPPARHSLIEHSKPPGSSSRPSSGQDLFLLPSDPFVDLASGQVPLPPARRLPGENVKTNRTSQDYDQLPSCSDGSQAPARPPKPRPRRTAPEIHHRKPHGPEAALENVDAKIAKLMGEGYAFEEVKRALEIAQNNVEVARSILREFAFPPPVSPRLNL

[6] = Induction of anti-CD3/CD28 antibodies-stimulated human T cell activation at 1 uM assessed fold increase in IL-2 secretion measured by ELISA assay; format: functional, T cell line
[7] = Induction of anti-CD3 antibodies-stimulated human T cell activation at 1 uM assessed fold increase in CD25 expression measured by ELISA assay; format: functional, T cell line; note: reference of the scale not given here

Row | SMILES | fold change (FC) [1] | fold change (FC) [2] | fold change (FC) [3] | fold change (FC) [4] | pIC50 [5] | fold change (FC) [6] | fold change (FC) [7] | fold change (FC) ([2]; 0.3 µM) | fold change (FC) ([3]; 1 µM) | fold change (FC) ([4]; 1 µM) | fold change (FC) ([7]; 1 µM)
1 | Cn1cnnc1CC1(c2cccc(N3Cc4c(cc(CN5Cc6cccc(F)c6C5)cc4C(F)(F)F)C3=O)c2)COC1 | 2.51 | 1.31 | 1.31 | >=0.201 | > 7.00 | >=7.5 | >=1.001 |  |  |  | 
2 | Cn1cnnc1CC1(c2cccc(N3Cc4c(cc(N5CC(C(F)(F)F)C5)cc4C(F)(F)F)C3=O)c2)COC1 | 2.51 | 1.01 | 1.01 | 0.051 | > 7.00 | >=7.5 | >=1.001 |  |  |  | 
3 | Cn1cnnc1[C@@H](F)C1(c2cccc(N3Cc4c(cc(CN5C6CCCC5CC6)cc4C(F)(F)F)C3=O)c2)COC1 (stereo in doubt; 671a) | 2.51 |  |  |  | > 7.00 | 5 |  | 1.51 | >=1.76 | >=0.201 | 0.601
4 | C[C@@H](c1cc2c(c(C(F)(F)F)c1)CN(c1cccc(C3([C@H](F)c4nncn4C)COC3)c1)C2=O)N1CCC2(CC2)C1 (single isomer, unassigned) | >=7.5 | >=1.76 | >=1.76 | >=0.201 | > 7.00 | >=7.5 | >=1.001 |  |  |  | 
5 | Cn1cnnc1CC1(c2cccc(N3Cc4c(cc(CN5CCCc6c5cnn6C)cc4C(F)(F)F)C3=O)c2)COC1 | 5 | 1.01 | 1.01 | >=0.201 | > 7.00 | >=7.5 | >=1.001 |  |  |  | 
6 | C[C@H](Cc1nncn1C)c1cc(C2CC2)nc(N2Cc3c(cccc3C(F)(F)F)C2=O)c1 | 1.01 | 1.01 | 1.01 | 0.101 | > 7.00 | 2.51 | 0.801 |  |  |  | 
7 | Cn1cnnc1CC1(c2cccc(N3Cc4c(cc(CN5Cc6cccnc6C5)cc4C(F)(F)F)C3=O)c2)COC1 | 2.51 | 1.31 | 1.31 | >=0.201 | > 7.00 | >=7.5 | >=1.001 |  |  |  | 
8 | Cn1cnnc1CC1(c2cccc(N3Cc4c(cc(CN5CCC(C)(C#N)CC5)cc4C(F)(F)F)C3=O)c2)COC1 | >=7.5 | 1.31 | 1.31 | 0.151 | > 7.00 | >=7.5 | >=1.001 |  |  |  | 
9 | Cn1cnnc1CC1(c2cccc(N3Cc4c(cc(CN5CCCC6CC65)cc4C(F)(F)F)C3=O)c2)COC1 (stereo unspecified) | >=7.5 | 1.01 | 1.01 | >=0.201 | > 7.00 | >=7.5 | >=1.001 |  |  |  | 
10 | Cn1cnnc1CC1(c2cccc(N3Cc4c(cc(CN5CCC6CC6C5)cc4C(F)(F)F)C3=O)c2)COC1 (stereo unspecified) | >=7.5 | 1.31 | 1.31 | >=0.201 | > 7.00 | >=7.5 | >=1.001 |  |  |  | 
11 | Cc1conc1CC1(c2cccc(N3Cc4c(cc(CN5CCC6(CC6)C5)cc4C(F)(F)F)C3=O)c2)COC1 | >=7.5 | 1.31 | 1.31 | >=0.201 | > 7.00 | >=7.5 | >=1.001 |  |  |  | 
12 | CCOC1CCCN(Cc2cc3c(c(C(F)(F)F)c2)CN(c2cccc(C4(Cc5nncn5C)COC4)c2)C3=O)C1 (stereo unspecified) | >=7.5 | 1.51 | 1.51 | >=0.201 | > 7.00 | >=7.5 | >=1.001 |  |  |  | 
13 | Cc1cc(C(=O)Nc2cccc(C3(C(F)(F)c4nncn4C)COC3)c2)nc(C2CC2)n1 | 2.51 | 1.01 | 1.31 | 0.101 | > 7.00 | 5 | 0.801 |  |  |  | 
14 | CN1CC2CCC1CN2c1cc2c(c(C(F)(F)F)c1)CN(c1cccc(C3(Cc4nncn4C)COC3)c1)C2=O (stereo unspecified) | 2.51 | 1.01 | 1.31 | >=0.201 | > 7.00 | 5 | 0.801 |  |  |  | 
15 | CN1CC2CCC1CN2c1cc2c(c(C(F)(F)F)c1)CN(c1cccc([C@@](C)(F)C(F)(F)c3nncn3C)c1)C2=O (stereo partly specified) | 1.01 | 1.31 | 1.31 | 0.101 | > 7.00 | 2.51 | >=1.001 |  |  |  | 
16 | Cn1cnnc1CC1(c2cccc(N3Cc4c(cc(CN5CCS(=O)(=O)CC5)cc4C(F)(F)F)C3=O)c2)COC1 | 2.51 | 1.01 | 1.01 | 0.101 | > 7.00 | 2.51 | >=1.001 |  |  |  | 
17 | Cn1cnnc1[C@@H](F)C1(c2cccc(N3Cc4c(cc(CN5CCCC5)cc4C(F)(F)F)C3=O)c2)COC1 | 5 | >=1.76 | >=1.76 | >=0.201 | > 7.00 | >=7.5 | >=1.001 |  |  |  | 
18 | Cn1cnnc1CC1(c2cccc(N3Cc4c(cc(CN5CCOC6(CCC6)C5)cc4C(F)(F)F)C3=O)c2)COC1 | >=7.5 | 1.01 | 1.01 | >=0.201 | > 7.00 | >=7.5 | >=1.001 |  |  |  | 
19 | CN(C)Cc1cc(C(=O)Nc2cccc(C3(Cc4nncn4C)COC3)c2)nc(C2CC2)n1 | 2.51 | 1.31 | 1.31 | 0.101 | > 7.00 | >=7.5 | >=1.001 |  |  |  | 
20 | Cn1cnnc1CC1(c2cccc(N3Cc4c(cc(C5CCC5)cc4C(F)(F)F)C3=O)c2)COC1 | 2.51 | 1.01 | 1.31 | 0.101 | > 7.00 | 2.51 | 0.801 |  |  |  | 
21 | Cn1cnnc1CC1(c2cccc(N3Cc4c(cc(N5CCOC5=O)cc4C(F)(F)F)C3=O)c2)COC1 | 1.01 | 1.01 | 1.01 | <=0.05 | > 7.00 | 2.51 | 0.601 |  |  |  | 
22 | Cc1conc1CC1(c2cccc(NC(=O)c3cc(CN4CCC5(CC5)C4)cc(C4CC4)n3)c2)COC1 | >=7.5 | 1.31 | 1.31 | >=0.201 | > 7.00 | >=7.5 | >=1.001 |  |  |  | 
23 | CN1C2CCC1CN(c1cc3c(c(C(F)(F)F)c1)CN(c1cccc(C4(Cc5nncn5C)COC4)c1)C3=O)C2 | 2.51 | 1.01 | 1.01 | 0.151 | > 7.00 | 5 | >=1.001 |  |  |  | 
24 | Cn1cnnc1CC1(c2cccc(NC(=O)c3cc(CN4C[C@@H]5[C@H](C4)C5(F)F)cc(C4CC4)n3)c2)COC1 | >=7.5 | 1.31 | 1.31 | >=0.201 | > 7.00 | >=7.5 | >=1.001 |  |  |  | 
25 | Cn1cnnc1[C@@H](F)C1(c2cccc(N3Cc4c(cc(CN5CCCCC5)cc4C(F)(F)F)C3=O)c2)COC1 | >=7.5 | 1.31 | 1.51 | 0.101 | > 7.00 | >=7.5 | >=1.001 |  |  |  | 
26 | C[C@H](c1cc2c(c(C(F)(F)F)c1)CN(c1cccc(C3(Cc4nncn4C)COC3)c1)C2=O)N1CC(C)(F)C1 | 5 | 1.51 | 1.51 | >=0.201 | > 7.00 | >=7.5 | >=1.001 |  |  |  | 
27 | Cn1cnnc1CC1(c2cccc(N3Cc4c(cc(CN5C6CCCC5CC6)cc4C(F)(F)F)C3=O)c2)COC1 | >=7.5 | >=1.76 | >=1.76 | >=0.201 | > 7.00 | >=7.5 | >=1.001 |  |  |  | 
28 | Cn1cnnc1CC1(c2cccc(N3Cc4c(cc(CN5CCC6(CC5)CC6)cc4C(F)(F)F)C3=O)c2)COC1 | >=7.5 | 1.51 | 1.51 | >=0.201 | > 7.00 | >=7.5 | >=1.001 |  |  |  | 
